According to article PMC11758220, “Identification of a Privileged Scaffold for Inhibition of Sterol Transport Proteins through the Synthesis and Ring Distortion of Diverse, Pseudo-Natural Products” (ACS Central Science, 2025):

Legend:
Type in all cases: binding
Details in all cases: single dose, Dose = 10 µM
STARD3 = target: T1, STARD3 (Homo sapiens, UniProt Q14849); test: Differential scanning fluorimetry (DSF), STARD3
T1 construct: STARD3(216-444); made in house; host or cells: E. coli BL21(DE3)
T1 sequence (Q14849 216-444): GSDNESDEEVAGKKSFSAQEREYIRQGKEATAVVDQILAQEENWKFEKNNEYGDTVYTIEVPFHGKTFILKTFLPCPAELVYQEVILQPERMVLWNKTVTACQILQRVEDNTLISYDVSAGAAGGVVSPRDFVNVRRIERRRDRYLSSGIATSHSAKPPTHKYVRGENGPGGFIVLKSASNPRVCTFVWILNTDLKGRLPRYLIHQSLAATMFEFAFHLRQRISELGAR
From the text: (§1) Protein expression constructs
(§2) Human ASTER domains of Aster-A(359-547), -B(364-552) and -C(318-504) were subcloned into a pGEX-6p-2rbs vector, thus introducing the cloning artifact ‘GPLGS’.3 The pGEX-6P-1-GST-OSBP(377- […]
(§3) a gift from James H. Hurley (University of California).4 The pHIS_2His6_Thrombin_STARD4(2-205;C75S) plasmid was a gift from Young Jun Im (Chonnam National University).5 STARD5A was a gift from Nicola Burgess-Brown (Addgene plasmid #42392; http://n2t.net/addgene:42392; […]
(§4) Protein expression and purification […]
(§5) vectors including an N-terminal PreScission-cleavable glutathione S-transferase (GST)-tag were expressed in Escherichia coli (E. coli) OverExpress C41 in Terrific Broth (TB) medium for 16 h at 18 °C after the induction with 0.1 mM isopropyl β-D-1-thiogalactopyranoside (IPTG). Cells were harvested at 3500 × g for 15 minutes and lysed by sonication in buffer containing 50 mM HEPES pH 7.5, 300 mM NaCl, 10 %v/v glycerol, 5 mM dithiothreitol (DTT), 0.1 %v/v Triton X-100 and protease inhibitor mix HP plus (Serva). The lysate was purified by affinity chromatography on a GSTrap FF column (Cytiva) using an ÄKTA Start (Cytiva) in buffer containing 50 mM HEPES pH 7.5, 300 mM NaCl, 10 %v/v glycerol, 5 mM DTT and 0.01 %v/v Triton X-100. The GST-tag was cleaved overnight on the column at 4 °C. The Aster sterol binding domains were further purified by size-exclusion chromatography (SEC) on a HiLoad 16/600 Superdex 75 pg (Cytiva) in buffer containing 20 mM HEPES pH 7.5, 300 mM NaCl, 10 %v/v […]
(§6) STARD5(6-213) harboring an N-terminal His6-Tag were expressed in E. coli BL21(DE3) in Luria-Bertani Broth (LB) medium for approximately 16 h at 18 °C after induction with 0.15 mM IPTG. Cells were harvested at 3500 × g for 15 minutes and lysed by sonication in buffer containing 50 mM HEPES pH 7.5, 150 mM NaCl, 5 %v/v glycerol, 5 mM DTT, 0.1 %v/v Triton X -100 and ethylenediaminetetraacetic acid (EDTA)-free protease inhibitor cocktail (Sigma-Aldrich). The cleared lysate was purified by affinity chromatography on a Ni-NTA Superflow Cartridge (Qiagen) using an ÄKTA Start (Cytiva) in buffer containing 50 mM HEPES pH 7.5, 150 mM NaCl, 5 %v/v glycerol, 5 mM DTT. START domains were eluted by using elution buffer containing 50 mM HEPES pH 7.5, 150 mM NaCl, 5 %v/v glycerol, 5 mM DTT and 500 mM imidazole. Proteins were further purified by SEC on a HiLoad 16/600 Superdex 75 pg (Cytiva) in buffer containing 20 mM HEPES pH 7.5, 150 mM NaCl, 5 %v/v glycerol and 2 mM DTT.
(§7) The ORP domain of human OSBP(377-807) in the pGEX-6p-1 vector with an N-terminal PreScission-cleavable GST-tag was expressed in E. coli OverExpress C41 in LB medium for 16 h at 18 °C after induction with 0.1 mM IPTG. Cells were harvested at 3500 × g for 15 minutes and lysed by sonication in buffer containing 20 mM HEPES pH 7.5, 300 mM NaCl, 10 %v/v glycerol, 5 mM DTT, 0.1 %v/v Triton X-100 and EDTA-free protease inhibitor cocktail (Sigma-Aldrich). The cleared lysate was purified by affinity chromatography on a GSTrap HF column (Cytiva) using an ÄKTA Start (Cytiva) in buffer containing 20 mM HEPES pH 7.5, 300 mM NaCl, 10 %v/v glycerol, 5 mM DTT. OSBP(377 -807) was eluted by using elution buffer containing 20 mM HEPES pH 7.5, 300 mM NaCl, 10 %v/v glycerol, 5 mM DTT and 10 mM reduced glutathione. Proteins were further purified by SEC on a HiLoad 16/600 Superdex 75 pg (Cytiva) using an ÄKTA Explorer (Cytiva) in buffer containing 20 mM HEPES pH 7.5, 150 mM NaCl, 10 %v/v glycerol and 2 mM DTT.
(§8) The ORP domains of human ORP1(534-950) in pET24b(+) and ORP2(49-480) in the pET24b(+) vector including an N-terminal His6-Tag were expressed in E. coli BL21(DE3) in TB medium for approximately 16 h at 18 °C after induction with 0.1 mM IPTG. Cells were collected at 3500 × g for 15 minutes and lysed by sonification in buffer containing 10 mM Tris-HCl pH 8, 300 mM NaCl, 5 % glycerol, 2 mM DTT, 0.1 % Triton X-100 and EDTA-free protease inhibitor cocktail (Sigma-Aldrich). The cleared […]

STARD5 = target: T2, STARD5 (Homo sapiens, UniProt Q9NSY2); test: Differential scanning fluorimetry (DSF), STARD5
T2 construct: STARD5(6-213); host or cells: E. coli BL21(DE3)
T2 sequence (Q9NSY2 6-213): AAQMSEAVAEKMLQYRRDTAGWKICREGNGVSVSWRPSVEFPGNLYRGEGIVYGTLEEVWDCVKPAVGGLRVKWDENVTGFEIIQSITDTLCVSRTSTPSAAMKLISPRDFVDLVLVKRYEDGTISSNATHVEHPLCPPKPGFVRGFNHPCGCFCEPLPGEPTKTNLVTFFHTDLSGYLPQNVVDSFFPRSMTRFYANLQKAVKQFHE
From the text: as §1, §2, §3, §4, §5, §6, §7, §8

STARD4 = target: T3, STARD4 (Homo sapiens, UniProt Q96DR4, C75S); test: Differential scanning fluorimetry (DSF), STARD4
T3 construct: STARD4(2-205; C75S); made in house; host or cells: E. coli BL21(DE3)
T3 sequence (Q96DR4 2-205 C75S): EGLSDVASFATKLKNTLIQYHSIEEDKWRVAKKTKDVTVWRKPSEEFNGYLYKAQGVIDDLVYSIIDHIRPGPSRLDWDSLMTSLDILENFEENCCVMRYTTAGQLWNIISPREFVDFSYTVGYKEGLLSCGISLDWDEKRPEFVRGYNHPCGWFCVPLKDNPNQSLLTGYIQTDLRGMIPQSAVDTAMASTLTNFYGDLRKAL
From the text: as §1, §2, §3, §4, §5, §6, §7, §8

Structure (SMILES): Cc1ccc2c(c1)C(=O)[C@]1(CC[C@@H]3C[C@H](O)CC[C@@]31C)N2 [Compound 13]
- ΔTm at 10 µM (STARD3): -0.0638 °C
- ΔTm at 10 µM (STARD5): 0.143 °C
- ΔTm at 10 µM (STARD4): 1.1 °C
